Tests used:
[1] = system: HPAC (homozygous mutant KRAS G12D human pancreatic cell line); assay: KRAS 3D-Cell Proliferation Assay, HPAC (Example 503); assay type: cell-based; details: Homo sapiens, HPAC, 168 h, HPAC 3D culture, 7 days, CellTiter-Glo 3D; read-out: Prolif HPAC 3D ATP IC50
Procedure: (§1) Example 503: KRAS 3D-Cell Proliferation Assays. Cellular potencies of compounds are assessed by evaluating inhibition of proliferation in 3D cultures of homozygous mutant KRAS G12D human pancreatic cell lines (AsPC-1 and HPAC) as compared to a KRAS wild type human lung adenocarcinoma cell line (PC-9 and/or H1975). Cells are seeded into 384-well black round-bottom, ultra-low attachment assay plates in 50 uL cell growth medium (RPMI-1640 with 10% fetal bovine serum and 2 mM L-glutamine). After overnight incubation at 37° C. and 5% CO2, compounds solubilized in DMSO are added as dilution series to the wells in a total volume of 150 nL (0.3% DMSO final). The cells are incubated for 7 days at 37° C. and 5% CO2. Cell proliferation is quantitated by addition of 40 uL/well of CellTiter-GloÒ 3D (Promega), and the well contents are mixed 20× at high speed using liquid handling automation workstation (Bravo with 384-well head) and centrifuged at 1500 rpm for 2 minutes to eliminate bubbles. This reagent in combination with mechanical disruption releases the cellular ATP to promote activity in a luciferase-based enzyme/substrate chemiluminescent detection system. After a 30-minute incubation under ambient conditions with shaking and an additional 10 minutes without shaking, the luminescence is read on a plate reader (e.g., EnVision [PerkinElmer]). The results are normalized to percent inhibition based on the following control samples: DMSO (0% inhibition) and 1 μM staurosporine (100% inhibition). The normalized luminescence results are plotted against compound concentration, and the data are fit to a 4-parameter Hill equation to determine the IC50 values.

[2] = system: H1975 (KRAS wild type human lung adenocarcinoma cell line); assay: KRAS 3D-Cell Proliferation Assay, H1975 (Example 503); assay type: cell-based; details: Homo sapiens, NCI-H1975, 168 h, H1975 3D culture, 7 days, CellTiter-Glo 3D; read-out: Prolif H1975 3D ATP IC50
Procedure: as §1

Structure (SMILES)	IC50 [1] [nM]	IC50 [2] [nM]
Cc1cc(N)cc(-c2nc3c4c(nc(OC[C@@]56CCCN5CC5(CC5(F)F)C6)nc4c2F)N2C[C@H]4CC[C@H](N4)[C@H]2[C@H](C)O3)c1C(F)(F)F (stereo partly drawn) [Compound 68, 3-((5S,5aS,6S,9R)-12-(((7a′S)-2,2-Difluorodihydro-1′H,3′H-spiro[cyclopropane-1,2′-pyrrolizin]-7a′(5′H)-yl)methoxy)-1-fluoro-5-methyl-5a,6,7,8,9,10-hexahydro-5H-4-oxa-3,10a,11,13,14-pentaaza[6,9]methanonaphtho[1,8-ab]heptalen-2-yl)-5-methyl-4-(trifluoromethyl)aniline]	0.205	146
C[C@@H]1Oc2nc(-c3cc(N)ccc3C(F)(F)F)c(F)c3nc(OC[C@@]45CCCN4C[C@H](F)C5)nc(c23)N2C[C@H]3CC[C@H](N3)[C@@H]12 [Compound 72, 3-((5S,5aS,6S,9R)-1-Fluoro-12-(((2R,7aS)-2-fluorotetrahydro-1H-pyrrolizin-7a(5H)-yl)methoxy)-5-methyl-5a,6,7,8,9,10-hexahydro-5H-4-oxa-3,10a,11,13,14-pentaaza-6,9-methanonaphtho[1,8-ab]heptalen-2-yl)-4-(trifluoromethyl)aniline]	3.16	1060
C[C@@H]1Oc2nc(-c3cc(N)c(F)cc3C(C)(F)F)c(F)c3nc(OC[C@@]45CCCN4C[C@H](F)C5)nc(c23)N2C[C@H]3CC[C@H](N3)[C@@H]12 [Compound 73, 4-(1,1-difluoroethyl)-2-fluoro-5-((5S,5aS,6S,9R)-1-fluoro-12-(((2R,7aS)-2-fluorotetrahydro-1H-pyrrolizin-7a(5H)-yl)methoxy)-5-methyl-5a,6,7,8,9,10-hexahydro-5H-4-oxa-3,10a,11,13,14-pentaaza-6,9-methanonaphtho[1,8-ab]heptalen-2-yl)aniline]	16.3	4090
Cc1cc(N)cc(-c2nc3c4c(nc(OC[C@@]56CCCN5C[C@H](F)C6)nc4c2F)N2C[C@H]4CC[C@H](N4)[C@H]2[C@H](C)O3)c1Cl [Compound 74, 4-Chloro-3-((5S,5aS,6S,9R)-1-fluoro-12-(((2R,7aS)-2-fluorotetrahydro-1H-pyrrolizin-7a(5H)-yl)methoxy)-5-methyl-5a,6,7,8,9,10-hexahydro-5H-4-oxa-3,10a,11,13,14-pentaaza-6,9-methanonaphtho[1,8-ab]heptalen-2-yl)-5-methylaniline]	5.7	2040
C[C@@H]1Oc2nc(-c3cc(O)cc4ccc(F)c(F)c34)c(F)c3nc(OC[C@@]45CCCN4C[C@H](F)C5)nc(c23)N2C[C@H]3CC[C@H](N3)[C@@H]12 [Compound 82, 5,6-Difluoro-4-((5S,5aS,6S,9R)-1-fluoro-12-(((2R,7aS)-2-fluorotetrahydro-1H-pyrrolizin-7a(5H)-yl)methoxy)-5-methyl-5a,6,7,8,9,10-hexahydro-5H-4-oxa-3,10a,11,13,14-pentaaza-6,9-methanonaphtho[1,8-ab]heptalen-2-yl)naphthalen-2-ol]	20000	20000
C[C@@H]1Oc2nc(-c3cc(N)cc4c3CCC4)c(F)c3nc(OC[C@@]45CCCN4C[C@H](F)C5)nc(c23)N2C[C@H]3CC[C@H](N3)[C@@H]12 [Compound 83, 7-((5S,5aS,6S,9R)-1-Fluoro-12-(((2R,7aS)-2-fluorotetrahydro-1H-pyrrolizin-7a(5H)-yl)methoxy)-5-methyl-5a,6,7,8,9,10-hexahydro-5H-4-oxa-3,10a,11,13,14-pentaaza-6,9-methanonaphtho[1,8-ab]heptalen-2-yl)-2,3-dihydro-1H-inden-5-amine]	23.7	2230
Cc1cc(N)c(F)c(-c2nc3c4c(nc(OC[C@@H]5CC[C@H]6COCCN65)nc4c2F)N2C[C@H]4CC[C@H](N4)[C@H]2[C@H](C)O3)c1C1CC1 [Compound 98, 4-Cyclopropyl-2-fluoro-3-((5S,5aS,6S,9R)-1-fluoro-12-(((6S,8aS)-hexahydro-1H-pyrrolo[2,1-c][1,4]oxazin-6-yl)methoxy)-5-methyl-5a,6,7,8,9,10-hexahydro-5H-4-oxa-3,10a,11,13,14-pentaaza-6,9-methanonaphtho[1,8-ab]heptalen-2-yl)-5-methylaniline]	26.2	2750
Cc1cc(N)c(F)c(-c2nc3c4c(nc(OC[C@@H]5CC[C@H]6COCCN65)nc4c2F)N2C[C@H]4CC[C@H](N4)[C@H]2[C@H](C)O3)c1C=C(F)F [Compound 99, 4-(2,2-Difluorovinyl)-2-fluoro-3-((5S,5aS,6S,9R)-1-fluoro-12-(((6S,8aS)-hexahydro-1H-pyrrolo[2,1-c][1,4]oxazin-6-yl)methoxy)-5-methyl-5a,6,7,8,9,10-hexahydro-5H-4-oxa-3,10a,11,13,14-pentaaza-6,9-methanonaphtho[1,8-ab]heptalen-2-yl)-5-methylaniline]	40	5060
Cc1cc(N)c(F)c(-c2nc3c4c(nc(OC[C@@H]5CC[C@H]6COCCN65)nc4c2F)N2C[C@H]4CC[C@H](N4)[C@H]2[C@H](C)O3)c1C(F)(F)C(F)(F)F [Compound 100, 2-Fluoro-3-((5S,5aS,6S,9R)-1-fluoro-12-(((6S,8aS)-hexahydro-1H-pyrrolo[2,1-c][1,4]oxazin-6-yl)methoxy)-5-methyl-5a,6,7,8,9,10-hexahydro-5H-4-oxa-3,10a,11,13,14-pentaaza-6,9-methanonaphtho[1,8-ab]heptalen-2-yl)-5-methyl-4-(perfluoroethyl)aniline]	21.8	3970
Cc1cc(N)c(F)c(-c2nc3c4c(nc(OC[C@@H]5CC[C@H]6COCCN65)nc4c2F)N2C[C@H]4CC[C@H](N4)[C@H]2[C@H](C)O3)c1Cl [Compound 101, 4-Chloro-2-fluoro-3-((5S,5aS,6S,9R)-1-fluoro-12-(((6S,8aS)-hexahydro-1H-pyrrolo[2,1-c][1,4]oxazin-6-yl)methoxy)-5-methyl-5a,6,7,8,9,10-hexahydro-5H-4-oxa-3,10a,11,13,14-pentaaza-6,9-methanonaphtho[1,8-ab]heptalen-2-yl)-5-methylaniline]	41.5	8490
Cc1cc(N)c(Cl)c(-c2nc3c4c(nc(OC[C@@H]5CC[C@H]6COCCN65)nc4c2F)N2C[C@H]4CC[C@H](N4)[C@H]2[C@H](C)O3)c1C(F)(F)F [Compound 103, 2-Chloro-3-((5S,5aS,6S,9R)-1-fluoro-12-(((6S,8aS)-hexahydro-1H-pyrrolo[2,1-c][1,4]oxazin-6-yl)methoxy)-5-methyl-5a,6,7,8,9,10-hexahydro-5H-4-oxa-3,10a,11,13,14-pentaaza-6,9-methanonaphtho[1,8-ab]heptalen-2-yl)-5-methyl-4-(trifluoromethyl)aniline]	9.29	3460
C[C@@H]1Oc2nc(-c3[nH]c(=O)cc4ccccc34)c(F)c3nc(OC[C@@]45CCCN4C[C@H](F)C5)nc(c23)N2C[C@H]3CC[C@H](N3)[C@@H]12 [Compound 105, 1-((5S,5aS,6S,9R)-1-Fluoro-12-(((2R,7aS)-2-fluorotetrahydro-1H-pyrrolizin-7a(5H)-yl)methoxy)-5-methyl-5a,6,7,8,9,10-hexahydro-5H-4-oxa-3,10a,11,13,14-pentaaza-6,9-methanonaphtho[1,8-ab]heptalen-2-yl)isoquinolin-3(2H)-one]	2000	20000
C[C@@H]1Oc2nc(-c3c(C#N)c(N)c(F)c(F)c3C(F)(F)F)c(F)c3nc(OC[C@@]45CCCN4C[C@H](F)C5)nc(c23)N2C[C@H]3CC[C@H](N3)[C@@H]12 [Compound 107, 2-Amino-3,4-difluoro-6-((5S,5aS,6S,9R)-1-fluoro-12-(((2R,7aS)-2-fluorotetrahydro-1H-pyrrolizin-7a(5H)-yl)methoxy)-5-methyl-5a,6,7,8,9,10-hexahydro-5H-4-oxa-3,10a,11,13,14-pentaaza-6,9-methanonaphtho[1,8-ab]heptalen-2-yl)-5-(trifluoromethyl)benzonitrile]	43.5	4870
Cc1cc(N)c(F)c(-c2nc3c4c(nc(OC[C@@]56CCCN5C[C@H](F)C6)nc4c2F)N2C[C@H]4CC[C@H](N4)[C@H]2[C@H](C)O3)c1I [Compound 108, 2-Fluoro-3-((5S,5aS,6S,9R)-1-fluoro-12-(((2R,7aS)-2-fluorotetrahydro-1H-pyrrolizin-7a(5H)-yl)methoxy)-5-methyl-5a,6,7,8,9,10-hexahydro-5H-4-oxa-3,10a,11,13,14-pentaaza-6,9-methanonaphtho[1,8-ab]heptalen-2-yl)-4-iodo-5-methylaniline]	2.85	772
C#Cc1c(F)ccc2cc(N)cc(-c3nc4c5c(nc(OC[C@]67CCN6CC(F)(F)C7)nc5c3F)N3C[C@H]5CC[C@H](N5)[C@H]3[C@H](C)O4)c12 [Compound 110, 4-((5S,5aS,6S,9R)-12-(((R)-3,3-Difluoro-1-azabicyclo[3.2.0]heptan-5-yl)methoxy)-1-fluoro-5-methyl-5a,6,7,8,9,10-hexahydro-5H-4-oxa-3,10a,11,13,14-pentaaza-6,9-methanonaphtho[1,8-ab]heptalen-2-yl)-5-ethynyl-6-fluoronaphthalen-2-amine]	2.58	587

Reference: US12338256B2, “Aza-tetracyclic oxazepine compounds and uses thereof” (Genentech, Inc., priority 2022, dated 2025)
